Experimental data reported in PubChem BioAssay AID1845194 (Molecular Pharmacology Branch, DTP, NCI, 2023).
Several values for one entry are separate records, joined by “and”; a condition that tells them apart may be missing. Equal entries are not always repeated.

Test system: 287954-098-R-J1 tumor spheroid viability
Assay: Anticancer human tumor 287954-098-R-J1 patient-derived Ewing sarcoma cell line growth inhibition
Settings: spheroids with HUVEC and MSC; for viability, T/C: stronger effect = lower value
Procedure, shortened: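 Complex tumor spheroids combined malignant cells with endothelial cells and mesenchymal stem cells. DNA-damaging drugs and DNA repair inhibitors were tested alone and in combination, at half-log dilutions down from clinical Cmax (top 10 microM if Cmax unknown), 0.25% DMSO final.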

[1] = curve of first compound, second compound 30 pM
[2] = curve of first compound, second compound 94.9 pM
[3] = curve of first compound, second compound 0.0003 µM
[4] = curve of first compound, second compound 0.000949 µM
[5] = curve of first compound, second compound 0.003 µM
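Note: spheroids exposed to compound for 7 days before viability readout.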
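Throughout, for viability, T/C: luminescent signal taken as surrogate of viable cell content; 100% = DMSO vehicle control viability and lower means growth inhibition.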

With `COc1ccc([C@@H](O)c2cc(-c3ncnc4cc(N5CCOCC5)ccc34)c(F)cc2Cl)nn1` + COc1cc2c(cc1O)CCNC21CSC2c3c(OC(C)=O)c(C)c4c(c3C(COC1=O)N1C(O)C3Cc5cc(C)c(OC)c(O)c5C(C21)N3C)OCO4 the IC50 [1] was over 10000 nM, the IC50 [2] was over 10000 nM and the IC50 [3] was 587 nM. It also gave an IC50 [4] of under 31.6 nM, an IC50 [5] of under 31.6 nM and a viability, T/C (second compound 30 pM, first compound 0.0316 µM) of 101%. It also gave a viability, T/C (second compound 30 pM, first compound 0.1 µM) of 99.2%, a viability, T/C (second compound 30 pM, first compound 0.316 µM) of 100% and a viability, T/C (second compound 30 pM, first compound 1 µM) of 109%. The viability, T/C (second compound 30 pM, first compound 3.16 µM) was 104%, the viability, T/C (second compound 30 pM, first compound 10 µM) was 94.3% and the viability, T/C (second compound 94.9 pM, first compound 0.0316 µM) was 109%. It also gave a viability, T/C (second compound 94.9 pM, first compound 0.1 µM) of 112%, a viability, T/C (second compound 94.9 pM, first compound 0.316 µM) of 108% and a viability, T/C (second compound 94.9 pM, first compound 1 µM) of 109%. It also gave a viability, T/C (second compound 94.9 pM, first compound 3.16 µM) of 108%, a viability, T/C (second compound 94.9 pM, first compound 10 µM) of 72.8% and a viability, T/C (second compound 0.0003 µM, first compound 0.0316 µM) of 109%. For the same compound, the viability, T/C (second compound 0.0003 µM, first compound 0.1 µM) was 109%, the viability, T/C (second compound 0.0003 µM, first compound 0.316 µM) was 103% and the viability, T/C (second compound 0.0003 µM, first compound 1 µM) was 4.2%. The viability, T/C (second compound 0.0003 µM, first compound 3.16 µM) was 0.48%, the viability, T/C (second compound 0.0003 µM, first compound 10 µM) was 1.07% and the viability, T/C (second compound 0.000949 µM, first compound 0.0316 µM) was 0.54%. For the same compound, the viability, T/C (second compound 0.000949 µM, first compound 0.1 µM) was 0.53%, the viability, T/C (second compound 0.000949 µM, first compound 0.316 µM) was 0.35% and the viability, T/C (second compound 0.000949 µM, first compound 1 µM) was 0.22%. For the same compound, the viability, T/C (second compound 0.000949 µM, first compound 3.16 µM) was 0.12%, the viability, T/C (second compound 0.000949 µM, first compound 10 µM) was 0.32% and the viability, T/C (second compound 0.003 µM, first compound 0.0316 µM) was 0.43%. It also gave a viability, T/C (second compound 0.003 µM, first compound 0.1 µM) of 0.47%, a viability, T/C (second compound 0.003 µM, first compound 0.316 µM) of 0.36% and a viability, T/C (second compound 0.003 µM, first compound 1 µM) of 0.33%. The viability, T/C (second compound 0.003 µM, first compound 3.16 µM) was 0.32% and the viability, T/C (second compound 0.003 µM, first compound 10 µM) was 0.48%.

In the case of `Cc1cc(C)c(CNC(=O)c2cc(-c3ccc(CN4CCOCC4)cc3)cc3c2cnn3C2CCCC2)c(=O)[nH]1`, the viability, T/C (compound 0.0316 µM) is reported as 104% and 106% and 95.4%, the viability, T/C (compound 0.1 µM) is reported as 95.6% and 106% and 114% and the viability, T/C (compound 0.316 µM) is reported as 99.8% and 99.5% and 103%. For the same compound, the viability, T/C (compound 1 µM) was 102% and 97.1% and 101%, the viability, T/C (compound 3.16 µM) was 98.2% and 112% and 109% and the viability, T/C (compound 10 µM) was 113% and 108% and 114%. It also gave an IC50 (curve of compound) of over 10000 nM.

Work on `Cn1ncnc1[C@H]1c2n[nH]c(=O)c3cc(F)cc(c23)N[C@@H]1c1ccc(F)cc1` + COc1cc2c(cc1O)CCNC21CSC2c3c(OC(C)=O)c(C)c4c(c3C(COC1=O)N1C(O)C3Cc5cc(C)c(OC)c(O)c5C(C21)N3C)OCO4 yielded an IC50 [1] of 575 nM, an IC50 [2] of 477 nM and an IC50 [3] of 39 nM. It also gave an IC50 [4] of under 9.49 nM, an IC50 [5] of under 9.49 nM and a viability, T/C (second compound 30 pM, first compound 0.00949 µM) of 99%. For the same compound, the viability, T/C (second compound 30 pM, first compound 0.03 µM) was 111%, the viability, T/C (second compound 30 pM, first compound 0.0949 µM) was 102% and the viability, T/C (second compound 30 pM, first compound 0.3 µM) was 97.6%. For the same compound, the viability, T/C (second compound 30 pM, first compound 0.949 µM) was 13.3%, the viability, T/C (second compound 30 pM, first compound 3 µM) was 1.27% and the viability, T/C (second compound 94.9 pM, first compound 0.00949 µM) was 107%. The viability, T/C (second compound 94.9 pM, first compound 0.03 µM) was 104%, the viability, T/C (second compound 94.9 pM, first compound 0.0949 µM) was 106% and the viability, T/C (second compound 94.9 pM, first compound 0.3 µM) was 82.7%. The viability, T/C (second compound 94.9 pM, first compound 0.949 µM) was 1.42%, the viability, T/C (second compound 94.9 pM, first compound 3 µM) was 1.02% and the viability, T/C (second compound 0.0003 µM, first compound 0.00949 µM) was 81.8%. It also gave a viability, T/C (second compound 0.0003 µM, first compound 0.03 µM) of 63%, a viability, T/C (second compound 0.0003 µM, first compound 0.0949 µM) of 6% and a viability, T/C (second compound 0.0003 µM, first compound 0.3 µM) of 1.31%. It also gave a viability, T/C (second compound 0.0003 µM, first compound 0.949 µM) of 0.92%, a viability, T/C (second compound 0.0003 µM, first compound 3 µM) of 0.91% and a viability, T/C (second compound 0.000949 µM, first compound 0.00949 µM) of 0.31%. For the same compound, the viability, T/C (second compound 0.000949 µM, first compound 0.03 µM) was 0.21%, the viability, T/C (second compound 0.000949 µM, first compound 0.0949 µM) was 0.23% and the viability, T/C (second compound 0.000949 µM, first compound 0.3 µM) was 0.13%. It also gave a viability, T/C (second compound 0.000949 µM, first compound 0.949 µM) of 0.04%, a viability, T/C (second compound 0.000949 µM, first compound 3 µM) of 0.12% and a viability, T/C (second compound 0.003 µM, first compound 0.00949 µM) of 0.16%. It also gave a viability, T/C (second compound 0.003 µM, first compound 0.03 µM) of 0.17%, a viability, T/C (second compound 0.003 µM, first compound 0.0949 µM) of 0.13% and a viability, T/C (second compound 0.003 µM, first compound 0.3 µM) of 0.12%. The viability, T/C (second compound 0.003 µM, first compound 0.949 µM) was 0.12% and the viability, T/C (second compound 0.003 µM, first compound 3 µM) was 0.2%.
